From the supplement of paper PMC3974653
Counter-ions that a name gives are not always drawn.

Test system: MTT (mouse pheochromocytoma)
Assay: IC50 of cell viability (ATP content)
Details: (24 or 48 h)
Method in brief: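 MTT mouse pheochromocytoma cells (5 µl of 200,000 cells/ml per well, white 1536-well plates, DMEM with 5% FBS and 1% horse serum) were cultured overnight at 37°C, 5% CO2. They then received 23 nl library compound in DMSO by pintool at 8 concentrations (final 0.5 nM to 46 µM) for 24 or 48 hrs. CellTiter-Glo ATP luminescence was read after 15 minutes. Signals were normalised to positive-control (100% inhibition) and DMSO (0%) wells, and IC50 came from a four-parameter logistic fit.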

CC(=O)NC\1=N\C(=O)N(\C=C1)C2COC(COC(=O)C3=CC=CC=C3)O2 (stereo not drawn)
IC50 of cell viability: > 46 µM

C=C1CC2C3C=C(C)C4=CC(=O)CCC4(C)C3CCC2(C)[C@@]1(OC(C)=O)C(C)=O (stereo partly drawn)
IC50 of cell viability: > 46 µM

CC(C)C1NC(=O)[C@@H](NC(=O)C2=C3\N=C\4/C(=C(/C)C(=O)\C(=C4C(=O)N[C@H]5[C@@H](C)OC(=O)C(C(C)C)N(C)C(=O)CN(C)C(=O)[C@@H]6CCCN6C(=O)C(NC5=O)C(C)C)N)OC3=C(C)C=C2)[C@@H](C)OC(=O)C(C(C)C)N(C)C(=O)CN(C)C(=O)[C@@H]7CCCN7C1=O (stereo partly drawn)
IC50 of cell viability: > 46 µM

Cc1c(O)cc2c(c1C)O[C@](C)(CCC[C@H](C)CCC[C@H](C)CCCC(C)C)CC2
IC50 of cell viability: > 46 µM

CC(C)OC(=O)c1cc2c(OCC(O)CNC(C)(C)C)cccc2[nH]1 (stereo not drawn)
IC50 of cell viability: > 46 µM

CC1(C)CO[C@@H](CC(=O)O)CN1
IC50 of cell viability: > 46 µM

Cc1cccc(Nc2cc(Cl)nc(SCC(=O)O)n2)c1C
IC50 of cell viability: > 46 µM

CCC(=O)OC1CCC2C3CCc4cc(O)ccc4C3CCC12C (stereo not drawn)
IC50 of cell viability: > 46 µM

CCC(=O)Oc1ccc2c(c1)CCC1C2CC[C@]2(C)C(OC(=O)CC)CCC12 (stereo partly drawn)
IC50 of cell viability: > 46 µM

CCC(=O)OC1[C@@H](N2CCCCC2)C[C@H]2[C@@H]3CC[C@H]4C[C@H](OC(C)=O)[C@@H](N5CCCCC5)C[C@]4(C)[C@H]3CC[C@]12C (stereo partly drawn)
IC50 of cell viability: > 46 µM

CCC(=O)O[C@@](Cc1ccccc1)(c1ccccc1)[C@H](C)CN(C)C
IC50 of cell viability: > 46 µM

CCc1ccc(S(=O)(=O)O)cc1
IC50 of cell viability: > 46 µM

CCCc1c(OCCCCc2nnn[nH]2)ccc(C(C)=O)c1O
IC50 of cell viability: > 46 µM

CCCCCCC(=O)CCCCCC/C=C/C[C@@H](O)[C@H](O)[C@@](N)(CO)C(=O)O
IC50 of cell viability: > 46 µM

CCCCCCCCCCCCCCCCCC[N+](C)(C)CCC[Si](OC)(OC)OC
IC50 of cell viability: > 46 µM

CCCCNc1ccc(C(=O)OCCN(C)C)cc1
IC50 of cell viability: > 46 µM

CCCSc1cc(OC)c(CCN)cc1OC
IC50 of cell viability: > 46 µM

CCN(CC)C(=O)c1cc([S+](=O)([O-])Cc2ccccc2)c(N2CCC(c3ccccc3)CC2)cc1N(CC)CCN(C)C
IC50 of cell viability: > 46 µM

CC[C@@H](O)C(C[C@@H](C)N(C)C)(c1ccccc1)c1ccccc1
IC50 of cell viability: > 46 µM

CC[C@H](O)C(C[C@H](C)N(C)C)(c1ccccc1)c1ccccc1
IC50 of cell viability: > 46 µM

CC[C@H](OC(C)=O)C(C[C@H](C)NC)(c1ccccc1)c1ccccc1
IC50 of cell viability: > 46 µM

CC[N+](CC)(CC(=O)Nc1c(C)cccc1C)Cc1ccccc1.O=C([O-])c1ccccc1
IC50 of cell viability: > 46 µM

CN1C(=O)COc2c(C(=O)NC3CN4CCC3CC4)cc(Cl)cc21 (stereo not drawn)
IC50 of cell viability: > 46 µM

CN1C2CCC1CC(OC(=O)c1cc(Cl)cc(Cl)c1)C2 (stereo not drawn)
IC50 of cell viability: > 46 µM

COc1cc(CCN)c(OC)cc1Br
IC50 of cell viability: > 46 µM

COc1ccc(C2NC(=S)N3C(c4ccc(OC)c(OC)c4)NC(=S)N23)cc1OC (stereo not drawn)
IC50 of cell viability: > 46 µM

COc1cc2c(cc1OC)[C@@H](c1ccccc1)CN(C)CC2.O=C(O)/C=C\C(=O)O
IC50 of cell viability: > 46 µM

COc1ccccc1N1CCN(CCCCNC(=O)c2ccc(-c3ccc(C(C)=O)cc3)cc2)CC1
IC50 of cell viability: > 46 µM

C[C@@]12CCC[C@H]1[C@@H]1CC[C@H]3C[C@@H](O)CC[C@]3(C)[C@H]1CC2
IC50 of cell viability: > 46 µM

Cc1c(C(=O)NCCO)[n+](=O)c2ccccc2n1[O-]
IC50 of cell viability: > 46 µM

Cl.Cn1ccc2cc3c(cc21)CCN3C(=O)Nc1cccnc1
IC50 of cell viability: > 46 µM

ClC1=C(Cl)C2(Cl)C(CBr)CC1(Cl)C2(Cl)Cl (stereo not drawn)
IC50 of cell viability: > 46 µM

F/C(COc1ccc2c(c1)[nH]c1ccccc12)=C1/CN2CCC1CC2
IC50 of cell viability: > 46 µM

Nc1nc(Cl)nc2c1ncn2C1CC(O)C(CO)O1 (stereo not drawn)
IC50 of cell viability: > 46 µM

NC1CCN(c2cccc(Cl)n2)CC1
IC50 of cell viability: > 46 µM

O=C1c2ccccc2-c2n[nH]c3cccc1c23
IC50 of cell viability: > 46 µM

O=C1CC2(CCCC2)CC(=O)N1CCNCC1COc2ccccc2O1 (stereo not drawn)
IC50 of cell viability: > 46 µM

O=C(O)CN(CCOCCOCCN(CC(=O)O)CC(=O)O)CC(=O)O
IC50 of cell viability: > 46 µM

O=C(O)[C@H]1C[C@@H](CP(=O)(O)O)CCN1
IC50 of cell viability: > 46 µM

O=C(O)/C=C\C(=O)O.O=C(O)/C=C\C(=O)O.c1cc(CN2CCCCC2)cc(OCCCNc2nc3ccccc3s2)c1
IC50 of cell viability: > 46 µM

OC(CN1CCCCC1)c1cc(-c2ccccc2)on1 (stereo not drawn)
IC50 of cell viability: > 46 µM

C1CCNCC1.Oc1ncnc2[nH]cc(CN3CCCCC3)c12
IC50 of cell viability: > 46 µM

C=C(NCc1ccccc1)c1ccccc1O
IC50 of cell viability: > 46 µM

O=C(NOCC(O)CO)c1ccc(F)c(F)c1Nc1ccc(I)cc1F (stereo not drawn)
IC50 of cell viability: > 46 µM

O=C(O)CCCO
IC50 of cell viability: > 46 µM

NCCO/C=C/C(N)C(=O)O (stereo not drawn)
IC50 of cell viability: > 46 µM

C[C@H](O)CN(C)C
IC50 of cell viability: > 46 µM

CCOC(=O)C(CS)NCCN[C@@H](CS)C(=O)OCC (stereo partly drawn)
IC50 of cell viability: > 46 µM

C=Cc1ccc(S(=O)(=O)[O-])cc1
IC50 of cell viability: > 46 µM

CNC[C@H](O)c1ccc(O)cc1 (racemic) [(+,-)-Synephrine]
IC50 of cell viability: > 46 µM

O=C1CCC(N2C(=O)c3ccccc3C2=O)C(=O)N1 (racemic) [(+-)-Thalidomide]
IC50 of cell viability: > 46 µM

COc1cc(CC(C)N)c(OC)cc1Br (racemic) [(±)-2,5-Dimethoxy-4-bromoamphetamine hydrobromide]
IC50 of cell viability: > 46 µM

CC(N)Cc1ccc2c(c1)OCO2 (racemic) [(±)-3,4-Methylenedioxyamphetamine hydrochloride]
IC50 of cell viability: > 46 µM

CCCCCC(O)/C=C/C=O (racemic) [(±)-4-Hydroxynon-2-enal]
IC50 of cell viability: > 46 µM

COCCc1ccc(OCC(O)CNC(C)C)cc1 (racemic) [(±)-Metoprolol (+)-tartrate salt]
IC50 of cell viability: > 46 µM

NCC(O)c1ccc(O)cc1 (racemic) [DL-OCTOPAMINE]
IC50 of cell viability: > 46 µM

O=C(O)[C@@H]1CCCN1 (racemic) [DL-Proline]
IC50 of cell viability: > 46 µM

Cl.NCCCC(N)(C(=O)O)C(F)F (racemic) [DL-alpha-Difluoromethylornithine hydrochloride]
IC50 of cell viability: > 46 µM

CCCCCCCCCCCCCCC[C@H](O)[C@H](N)CO (racemic) [DL-erythro-Dihydrosphingosine]
IC50 of cell viability: > 46 µM

COCCc1ccc(OC[C@H](O)CNC(C)C)cc1.COCCc1ccc(OC[C@H](O)CNC(C)C)cc1.O=C(O)[C@@H](O)[C@@H](O)C(=O)O (racemic) [Metoprolol-(+,-) (+)-tartrate salt]
IC50 of cell viability: > 46 µM

CC(=O)N[C@@H]1CCSC1=O (racemic) [N-Acetyl-DL-homocysteine Thiolactone]
IC50 of cell viability: > 46 µM

CC1=CCC(C(C)(C)O)CC1 (racemic) [Terpineol, mixture of isomers]
IC50 of cell viability: > 46 µM

CC\1=C(/CCN2CCC(CC2)C3=NOC4=C3C=CC(=C4)F)C(=O)[N@@]\5CCC[C@H](O)C5=N1 (racemic) [rac 9-Hydroxy Risperidone]
IC50 of cell viability: > 46 µM

COC(=O)C\1=C(C)\N\C(=C(/[C@@H]1C2=CC(=CC=C2)[N+]([O-])=O)C(=O)O[C@@H]3CCCN(C3)CC4=CC=CC=C4)C (racemic) [rac Benidipine Hydrochloride]
IC50 of cell viability: > 46 µM

O[C@@H](CNC[C@H](O)[C@H]1CCc2cc(F)ccc2O1)[C@@H]1CCc2cc(F)ccc2O1 (racemic) [rac Nebivolol Hydrochloride]
IC50 of cell viability: > 46 µM

C[C@H]1C2Cc3ccc(O)cc3[C@]1(C)CCN2CC1CC1 (single isomer, unassigned; (+)) [(+)-Cyclazocine]
IC50 of cell viability: > 46 µM

CCc1cc(OC)c(CC(C)N)cc1OC (single isomer, unassigned; (-)) [(-)-2,5-Dimethoxy-4-ethylamphetamine]
IC50 of cell viability: > 46 µM

COc1cc(CC(C)N)c(OC)cc1C (single isomer, unassigned; (-)) [(-)-2,5-Dimethoxy-4-methylamphetamine]
IC50 of cell viability: > 46 µM

COc1ccc(OC)c(CC(C)N)c1 (single isomer, unassigned; (-)) [(-)-2,5-Dimethoxyamphetamine]
IC50 of cell viability: > 46 µM

COc1cc(CC(C)N)c(OC)cc1Br (single isomer, unassigned; (-)) [(-)-4-Bromo-2,5-dimethoxyamphetamine]
IC50 of cell viability: > 46 µM

CN1C2CCC1C(C(=O)O)C(OC(=O)c1ccccc1)C2 (single isomer, unassigned; (-)) [(-)-Benzoylecgonine]
IC50 of cell viability: > 46 µM

COC(=O)C1C(OC(=O)c2ccccc2)CC2CCC1N2C (single isomer, unassigned; (-)) [(-)-Cocaine]
IC50 of cell viability: > 46 µM

CCNC(C)Cc1cccc(C(F)(F)F)c1 (single isomer, unassigned; (-)) [(-)-Fenfluramine]
IC50 of cell viability: > 46 µM
